Structures can show the parent of a compound that is named as a salt. Where two headings read alike, the source gives them in different places.
How the values were obtained:
SKH1 mice [1] = assay: UVB-induced epidermal hyperplasia: EdU detection of proliferating keratinocytes; type: in vivo
Description: (§1) SKH1 mice were treated and exposed to UVB irradiation. The back skin of the mice was exposed to 120 mJ/cm^2 UVB using the Biospectra system equipped with UVB sunlamps with a maximum emission peak at 312 nm. Irradiations were performed under isoflurane gaseous anesthesia. Mice were treated with vehicle (PEG400/EtOH/PHY (30/20/50) p/p) or brimonidine tartrate at 0.2% or 2%, by weight, administrated by topical application (100 μl) on a 10 cm^2 area on the upper part of the back using a micropipette. The area is located on the upper part of the back to prevent the animals from liking themselves. Three applications were performed according to the following two treatment schedules:
(§2) (a) pre-treatment: one application 1 hour prior to UVB irradiation, followed by two more applications 23 hours apart;
(§3) (b) post-treatment: one application immediately following the UVB irradiation, followed by two more applications 23 hours apart.
(§4) A compound reference, i.e., an EGFR inhibitor at 4%, by weight, in EtOH/H2O (76/24) was also administrated according to the pre-treatment schedule.
One hour after the third topical treatment and one hour before euthanasia, mice received an intraperitoneal (i.p.) injection of 5-ethynyl-2′-deoxyuridine (EdU) at 100 mg/kg. After mouse euthanasia using cervical dislocation, the back skin was removed and immediately fixed in formol. […]
For EdU detection, two or three sections of 7 μm per animal were submitted to EdU staining. […] Nuclei were also stained with 4′,6-diamidino-2-phenylindole (DAPI) diluted at 5 mg/mL in Vectashield Hard Set Mounting medium for Fluorescence (ref: H-1400 Vector Laboratories). The number of keratinocytes stained with Alexa Fluor® 594 was counted from digital images (NanoZoomer C9600-12, Hamamatsu Photonics K.K) and the epidermis length of each section determined using an in house dedicated tool.
Data were analyzed using unpaired t test for validation of the UVB irradiation and one-way ANOVA with Dunnett's multiple comparison test for the analysis of the treatment effect (Prism 6; GraphPad Software Inc., San Diego, Calif., USA). […]

[2] = tested on: Albino hairless SKH1-hr mice; details: for Skin Thickening: number of mice with observation / Skin Thickening: total number of observations: 40 weeks
Description: Albino hairless SKH1-hr mice (36/sex/group) were treated for 40 weeks with UVR and brimonidine gel or vehicle according to the design in table 11. […] Topical treatments were performed approximately one hour before UVR on Monday, Wednesday and Friday of each week and approximately one hour after UVR Tuesday and Thursday of each week.
*Monday, Wednesday and Friday of each week: exposure to UVR approximately one hour after test item application. Tuesday and Thursday of each week: exposure to UVR approximately one hour before test item application.
The UVR exposure was 600 RBU/week for all test groups in the table.

SKH1 mice [3] = assay: UVB-induced epidermal hyperplasia: epidermis thickness (H&E); type: in vivo; details: for Decrease of the epidermal thickness: post-treatment schedule (immediately after UVB, then twice 23 h apart)
Description: as §1, §2, §3, §4
One hour after the third topical treatment and one hour before euthanasia, mice received an intraperitoneal (i.p.) injection of 5-ethynyl-2′-deoxyuridine (EdU) at 100 mg/kg. After mouse euthanasia using cervical dislocation, the back skin was removed and immediately fixed in formol. The formol-fixed skin samples were embedded in paraffin and then submitted to immunohistological studies for epidermal thickness and EdU detection.
For epidermal thickness, two sections of 7 μm per animal were stained in hematoxylin and eosin (H&E) stain. Skin histology and the epidermis thickness were analyzed using image analysis (mScope 3.9, Aurora mScope) on scanned slide pictures (NanoZoomer C9600-12, Hamamatsu Photonics K.K).
Data were analyzed using unpaired t test for validation of the UVB irradiation and one-way ANOVA with Dunnett's multiple comparison test for the analysis of the treatment effect (Prism 6; GraphPad Software Inc., San Diego, Calif., USA). A p value of less than 0.05 was regarded as significant.

Compound: Brc1c(NC2=NCCN2)ccc2nccnc12 [brimonidine tartrate, (5-Bromo-quinoxalin-6-yl)-(4,5-dihydro-1H-imidazol-2-yl)-amine]
- Reduction of the number of EdU positive cells (SKH1 mice [1]; 0.2% topical, post-treatment schedule): 25%
- Reduction of the number of EdU positive cells (SKH1 mice [1]; 2% topical, post-treatment schedule): −64%
- Reduction of the number of EdU positive cells (SKH1 mice [1]; 2% topical, pre-treatment schedule): −59%
- UV-induced skin thickness, statistical effect ([2]; 0.18% (w/w) topical): did not statistically reduce
- UV-induced skin thickness, statistical effect ([2]; 1% (w/w) topical): statistically reduced
- UV-induced skin thickness, statistical effect ([2]; 2% (w/w) topical): statistically reduced
- Skin Thickening: number of mice with observation ([2]; female mice (36 tested), 0.18% brimonidine tartrate gel topical, UVR 600 RBU/week): 32
- Skin Thickening: number of mice with observation ([2]; female mice (36 tested), 1% brimonidine tartrate gel topical, UVR 600 RBU/week): 25
- Skin Thickening: number of mice with observation ([2]; female mice (36 tested), 2% brimonidine tartrate gel topical, UVR 600 RBU/week): 23
- Skin Thickening: total number of observations ([2]; female mice, 0.18% brimonidine tartrate gel topical, UVR 600 RBU/week): 521
- Skin Thickening: total number of observations ([2]; female mice, 1% brimonidine tartrate gel topical, UVR 600 RBU/week): 374
- Skin Thickening: total number of observations ([2]; female mice, 2% brimonidine tartrate gel topical, UVR 600 RBU/week): 381
- Skin Thickening: number of mice with observation ([2]; male mice (36 tested), 0.18% brimonidine tartrate gel topical, UVR 600 RBU/week): 34
- Skin Thickening: number of mice with observation ([2]; male mice (36 tested), 1% brimonidine tartrate gel topical, UVR 600 RBU/week): 27
- Skin Thickening: number of mice with observation ([2]; male mice (36 tested), 2% brimonidine tartrate gel topical, UVR 600 RBU/week): 24
- Skin Thickening: total number of observations ([2]; male mice, 0.18% brimonidine tartrate gel topical, UVR 600 RBU/week): 514
- Skin Thickening: total number of observations ([2]; male mice, 1% brimonidine tartrate gel topical, UVR 600 RBU/week): 392
- Skin Thickening: total number of observations ([2]; male mice, 2% brimonidine tartrate gel topical, UVR 600 RBU/week): 367
- UV-induced skin thickening, effect in words ([2]; topical 0.18%, 1% and 2%, UVR 600 RBU/week): dose-dependent reduction
- Decrease of the epidermal thickness (SKH1 mice [3]; 0.2% (w/w) topical): −16%
- Inhibition of UVB-induced acanthosis (epidermis thickness) (SKH1 mice [3]; 0.2% (w/w) topical, pre-treatment schedule): no effect
- Decrease of the epidermal thickness (SKH1 mice [3]; 2% (w/w) topical): −32%
- Inhibition of UVB-induced acanthosis (epidermis thickness) (SKH1 mice [3]; 2% (w/w) topical, pre-treatment schedule (1 h before UVB 120 mJ/cm^2, then twice 23 h apart)): −23%

— patent US20150313896A1, “METHOD FOR TREATING CELL PROLIFERATION DISORDERS” (Galderma Research & Development, priority 2013, published 2015)
